The text below walks through data of patent US10682323B2, “Therapeutic agent for glaucoma” (TOA EIYO LTD., priority 2016, dated 2020).

For data set [1], the system named is Rabbits with normal intraocular pressure. As to the kind of experiment: Influence on intraocular pressure in rabbits with normal intraocular pressure. The format is in vivo. The conditions noted are these: rabbit, 50 μL of 0.1 w/v % solution instilled into one eye, three hours after administration, saline eye minus test eye, average of three. As for the experimental part:
Rabbits (strain: Std:NZW, sex: male) with normal intraocular pressure were acclimated to breeding environment for more than three weeks, and subjected to test (three rabbits per one group).
A test compound was weighed, and a required amount of a 10 mmol/L or 20 mmol/L tris hydrochloric acid buffer solution was added thereto with a micropipette and dissolved therein. If necessary, a 1 mol/L hydrochloric acid or a 1 mol/L sodium hydroxide solution was used to prepare a physiological pH, to obtain the test compound solution (0.1 w/v % solution).
50 μL of the test compound solution was instilled into one eye, and 50 μL of a saline solution was instilled into the other eye as a negative control. Three hours after administration, intraocular pressure was measured. In addition, the measurement of intraocular pressure was repeated in the manner of right eye→left eye→right eye→left eye→ . . . , and continued until the changes of three consecutive intraocular pressures of the right eye and the left eye were within 1 mmHg, respectively. The average of three intraocular pressures at that time was recorded as the intraocular pressure at that time. In addition, ΔIOP (mmHg) was calculated by subtracting the intraocular pressure of the eye for instillation of the test compound solution from the intraocular pressure of the eye for instillation of the saline solution.
In addition, the data represents an average of three tests per one group.

Data set [2] can be described thus: Determination of Log D value (flask shaking method). The class given is physicochemical. The following applies: pH 6.8; partition between n-octanol and second solution for the disintegration test (16th revised Japanese Pharmacopoeia), room temperature. As for the experimental part: More specifically, the Log D is more preferably 1.6 or more and 2.3 or less, still more preferably 1.8 or more and 2.2 or less, and particularly preferably 1.8 or more and 2.1 or less. Here, the Log D value in the present invention is a compound partition coefficient between n-octanol and a second solution of a disintegration test of the 16th revised Japanese Pharmacopoeia.
The Log D value was determined using a flask shaking method, where a test compound partition coefficient between n-octanol and the second solution for the disintegration test defined in the 16th revised Japanese Pharmacopoeia was calculated. Specifically, in a microtube containing 2 mg of the test compound, n-octanol (0.25 mL) and the second solution for the disintegration test (0.25 mL) were mixed. The tube was shaken in a multi shaker at room temperature for 60 minutes, and allowed to stand until the two phases were completely separated. In the microtube, 10 μL of an n-octanol phase was diluted with 190 μL of 85% methanol and mixed, thereby obtaining an organic phase test solution. 100 μL of the second solution phase for the disintegration test was diluted with 100 μL of 50% methanol, and mixed, thereby obtaining an aqueous phase test solution. The organic phase test solution and the aqueous phase test solution were filtered, respectively, and the concentration of the test compound in these test solutions were measured, using high performance liquid chromatography. Then, from the measured concentration and dilution rate, the Log D was calculated.
That is, the Log D of the present specification is represented by the following equation: Log D=Log10([concentration of test compound in organic phase test solution]/[concentration of test compound in aqueous phase test solution])+1 [Equation 1]
The second solution for the disintegration test herein refers to, as defined in the 16th revised Japanese Pharmacopoeia, a liquid obtained by adding to 250 mL of a 0.2 mol/L potassium dihydrogenphosphate reagent, 118 mL of a 0.2 mol/L sodium hydroxide reagent, and water for adjusting to 1000 mL volume.

The logD is the decadic logarithm of the distribution of all forms, ionised or not, between an organic phase and buffer at a given pH. Higher therefore signals higher lipophilicity. On to `O=C(O)CCCCN(CCc1ccccc1OCc1ccc(CCc2ccccc2)cc1)Cc1ccc(C(=O)O)cc1` [Comparative Compound 1, reference compound], for which the ΔIOP in data set [1] stood at 0.3 mmHg. Besides, in data set [2], the logD came to 1.5.
Take `O=C(O)CCCCN(CCc1ccccc1OCc1ccc(CCc2ccccc2)cc1)C1COc2cc(C(=O)O)ccc21` (centres unmarked) [Comparative Compound 2, reference compound]: the ΔIOP in data set [1] is 1.5 mmHg. This molecule also showed a logD in data set [2] of 2.59.
Regarding `N#Cc1cccc([C@H](CN(CCCCC(=O)O)Cc2ccc(C(=O)O)cc2)OCc2ccc(Oc3ccccc3)cc2)c1` [Comparative Compound 3, reference compound], in data set [1], the ΔIOP came to 1.1 mmHg. The logD in data set [2] turned out to be 1.32.
The matching figures for `CC(C)(C)c1cc(CO[C@@H](CN(CCCCC(=O)O)Cc2ccc(C(=O)O)cc2)c2ccccc2)cc(C(C)(C)C)c1` [Comparative Compound 4, reference compound]: 0.2 mmHg and 2.78.
`O=C(O)CCCCN(Cc1ccc(C(=O)O)cc1)C[C@H](OCc1ccc(CCc2ccc(Cl)cc2)cc1)c1ccccc1` [Compound No. 6, (−)-4-([N-(4-carboxybutyl)-N-[(2R)-2-[4-[2-(4-chlorophenyl)ethyl]benzyloxy]-2-phenylethyl]amino]methyl)benzoic acid] had a ΔIOP in data set [1] of 3.4 mmHg. The same molecule gave a logD in data set [2] of 2.02.
In turn, `O=C(O)CCCCN(CCc1ccccc1OCc1cccc2c1CCCC2)[C@H]1CCCc2cc(C(=O)O)ccc21` [Compound No. 8, (+)-(5S)-5-[N-(4-carboxybutyl)-N-[2-[2-(5,6,7,8-tetrahydronaphthalene-1-ylmethoxy)phenyl]ethyl]amino]-5,6,7,8-tetrahydronaphthalene-2-carboxylic acid] yielded a ΔIOP in data set [1] of 5.2 mmHg. For the same molecule, the logD in data set [2] was 1.87.
The matching figures for `O=C(O)CCCCN(Cc1ccc(C(=O)O)cc1)C[C@H](OCc1ccc(CCc2ccccc2)cc1)c1ccccc1` [Compound No. 14, (−)-4-([N-(4-carboxybutyl)-N-[(2R)-2-[4-(2-phenylethyl)benzyloxy]-2-phenylethyl]amino]methyl)benzoic acid]: 5.0 mmHg and 2.04.
